Entries after “also recorded” stand apart in the source; their conditions may differ.
Assays:
human PF4 = molecular target: T1, human PF4 (Homo sapiens, UniProt P02776); test: Inhibition of PF4 tetramer formation (BS3 cross-linking, SDS-PAGE); format: biochemical; conditions: for inhibition at 5 µM: 5 μM inhibitor; for inhibition at 10 µM: 10 μM inhibitor (column A); for IC50: read-out: IC50 of PF4 tetramer formation inhibition
T1 construct: PF4 is a 70 amino acid, lysine-rich 7.8 kDa platelet-specific protein; made in house; host or cells: Escherichia coli BL21DE3 pLysS (pT7-7) and/or Drosophila S2 cells
T1 sequence (P02776 32-101): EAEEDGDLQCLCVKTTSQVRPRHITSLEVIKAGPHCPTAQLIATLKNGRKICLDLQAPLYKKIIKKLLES
How it was run: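 Monomer, dimer, trimer and tetramer fractions were quantified by densitometry after reducing 12% SDS-PAGE of BS3-cross-linked (0.2 mM, 30 min, room temperature) PF4. Before cross-linking, 10 μg/ml E. coli-expressed human WT PF4 in PBS was exposed to compound for 15 min at 37° C or 60 min at room temperature; controls lacked compound.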

[1] = system: FcγRIIA transgenic murine platelets; test: PF4-KKO induced platelet activation, P-selectin, FcγRIIA transgenic murine platelets; format: cell-based, mouse; conditions: for normalized P-selectin levels: FIG. 22; for preventing P-selectin expression: FcγRIIA transgenic murine platelets, 50 μM compound, 37.5 μg/ml PF4, 50 μg/ml KKO (FIGS. 14-21)
Description: Whole blood was diluted with 1× Tyrode buffer (5 mM N-2-hydroxyethylpiperazine-N′-2-ethanesulfonic acid, 0.1% BSA, 134 mM NaCl, 0.3 mM NaH2PO4, 3 mM KCl, 2 mM MgCl2, 12 mM NaHCO3, 5 mM glucose) with 0.02 U/ml apyrase and 1 μM PGE1 and centrifuged at 100 g for 10 min. Platelet rich plasma (PRP) was carefully removed and centrifuged at 1000 g for 5 min. Platelet pellet was resuspended in Tyrode buffer with 0.02 U/ml apyrase at 2×10^8/ml concentration at 37° C. PF4 antagonists are diluted in Tyrode buffer, and are incubated with 10 μg/ml human PF4 purified protein at room temperature for 30 min. The PF4-drug complex is then incubated with 1×10^8/ml platelets with 1 mM CaCl2, 0.1% BSA at 37° C. for 10 min. 40 μg/ml KKO and 10 μg/ml anti-CD62P (P-selectin) antibodies are added into the reaction. One milliliter ice-cold PBS is added to each reaction after 5 min of incubation. Labelled platelets are then analyzed by a BD Accuri C6 flow cytometer. The results are represented by both the mean fluorescence intensity and by the percentage of positive platelets.
37.5 μg/ml PF4 with/without 50 μM of the exemplified compound incubated with 3×10^7/ml platelets; 50 μg/ml KKO.

human platelets = test: PF4-KKO induced platelet activation, P-selectin, human platelets; format: cell-based; conditions: human platelet activation assays; 20 μM and 40 μM (FIGS. 8 and 9)
[2] = Mouse microsome stability; format: in vitro ADME; conditions: Mouse microsomes, compound conc = 0.5 μM, n = 1; read-out: Mouse microsome stability Half life t1/2
Text: (§1) Certain exemplified compounds were examined for ADMET (absorption, distribution, metabolism, excretion and toxicity) profiling using conventional assays with the results shown in the Tables 3A-3C below.

[3] = Human microsome stability; format: in vitro ADME; conditions: Human microsomes, compound conc = 0.5 μM, n = 1; read-out: Human microsome stability Half life t1/2
Text: as §1

[4] = Cytotoxicity HepG2 (MTS reduction); format: cell-based; conditions: human, HepG2 cells; read-out: Cytotox HepG2 EC50
[5] = Cytotoxicity NIH3T3 (MTS reduction); format: cell-based; conditions: mouse, NIH3T3 cells, 1 hour exposure in the absence of serum, N = 3, read-out: Cytotox NIH3T3 EC50
[6] = molecular target: T2, ultra large complexes (ULC) between PF4 tetramers and heparin (Homo sapiens, UniProt P02776); test: Inhibition of formation of ultra large complexes (ULC) of PF4 tetramers and heparin; format: biochemical; conditions: IC50 values are +/−20%
T2 construct: platelet factor 4 which is a 70 amino acid, lysine-rich, 7.8 kDa platelet-specific protein
T2 sequence (P02776 32-101): T1 sequence (P02776 32-101)
Description: Since ULCs are formed as part of a dynamic equilibrium between heparin and PF4, dynamic light scattering (DLS) was performed to measure the ability of the exemplified compounds to disrupt preformed ULCs. Samples were analyzed and included PF4 incubated in the absence or presence of unfractionated heparin (UFH) for 20 min at room temperature at PF4 to heparin ratios (PHR) of 1:0 (no heparin), 2:1, and 0.64:1. The samples were then analyzed using photon correlation spectroscopy on a DynaPro® DLS instrument and Dynamics® software (V6.7.6; […]) to obtain correlation function. The results of the DLS analysis indicate the percentage of ULCs and small PF4 particles. Data for the small particles (a population of particles with a mean hydrodynamic diameter of about 1 nm) and data for the large particles (a population of particles with a mean hydrodynamic diameter of about 300 nm) is assessed. Data are expressed as the percent of total intensity from each measurement, the mean of 10 measurements, and representative of two such experiments.
ELISA measurement and gel filtration measurement of ULC inhibition were performed as described in International Patent Publication No. WO2013/142328, which is incorporated herein by reference. Similarly, assays in which heparin concentrations are varied to determine the effect on ULC inhibition were performed as described in that publication.
Certain compounds were evaluated for their ability to inhibit formation of ultra large complexes (ULC) between PF4 tetramers and heparin.

[7] = read-out: % inhibition of PF4 tetramer formation at single concentration of inhibitor

| inhibition at 5 µM (human PF4; [7]) [%] | inhibition at 10 µM (human PF4; [7]) [%] | IC50 (human PF4) [nM] | half-life at 0.5 μM [2] [min] | half-life at 0.5 μM [3] [min] | inhibition at 100 µM (human PF4; 100 μM inhibitor, read-out: % inhibition of PF4 tetramer formation at single concentration of inhibitor) [%] | Structure (SMILES) | normalized P-selectin levels [1] | preventing P-selectin expression [1] | PF4-KKO induced platelet activation using P-selectin as a marker (human platelets) | EC50 [4] [µg/mL] | EC50 at 1 h [5] [µg/mL] | IC50 [6] [nM] |
| --- | --- | --- | --- | --- | --- | --- | --- | --- | --- | --- | --- | --- |
| 65 | 70 | 1190 |  |  |  | COc1cccc(NC(=O)C2C(=O)c3ccc(S(=O)(=O)c4ccc5c(c4)C(=O)C(C(=O)Nc4cccc(OC)c4)C5=O)cc3C2=O)c1 (stereo not shown) [Example 36, 5,5′-sulphonylbis(1,3-dioxo-indan-2-carboxylic acid (3-methoxyphenyl)-amide)] | modulate the activity of normalized P-selectin; also recorded: inhibition | efficacy |  |  |  |  |
| 60 | 81 | 1060 | 86.5 | > 180 |  | O=C(NC1CC1)C1C(=O)c2ccc(S(=O)(=O)c3ccc4c(c3)C(=O)C(C(=O)NC3CC3)C4=O)cc2C1=O (stereo not shown) [Example 34, 5,5′-sulphonylbis(1,3-dioxo-indan-2-carboxylic acid (cyclopropyl)-amide)] | modulate the activity of normalized P-selectin; also recorded: inhibition | efficacy | inhibitory |  |  |  |
|  |  | 3020 |  |  |  | O=C(c1ccc2c(c1)C(=O)C(C(=O)Nc1ccc3c(c1)OCCO3)C2=O)c1ccc2c(c1)C(=O)C(C(=O)Nc1ccc3c(c1)OCCO3)C2=O (stereo not shown) [Example 29, 5,5′-carbonylbis(1,3-dioxo-indan-2-carboxylic acid (n-(2,3-dihydro-benzo[1,4]dioxin-6-yl))-amide)] | modulate the activity of normalized P-selectin; also recorded: inhibition | efficacy | inhibitory |  |  |  |
|  |  | 1740 |  |  |  | COc1ccc(NC(=O)C2C(=O)c3ccc(C(=O)c4ccc5c(c4)C(=O)C(C(=O)Nc4ccc(OC)cc4)C5=O)cc3C2=O)cc1 (stereo not shown) [Example 31, 5,5′-carbonylbis(1,3-dioxo-indan-2-carboxylic acid (4-methoxyphenyl)-amide)] | modulate the activity of normalized P-selectin; also recorded: inhibition | efficacy | inhibitory |  |  |  |
| 86 | 91 | 2990 | > 180 | 54 |  | O=C(O)CCNC(=O)C1C(=O)c2ccc(C(=O)c3ccc4c(c3)C(=O)C(C(=O)NCCC(=O)O)C4=O)cc2C1=O (stereo not shown) [Example 32, 5,5′-carbonylbis(3-[(1,3-dioxo-indane-2-carbonyl)-amino]-propionic acid)] | modulate the activity of normalized P-selectin; also recorded: inhibition | efficacy | inhibitory |  |  |  |
| 67 | 76 | 1600 |  |  |  | O=C(NCCc1ccccc1)C1C(=O)c2ccc(S(=O)(=O)c3ccc4c(c3)C(=O)C(C(=O)NCCc3ccccc3)C4=O)cc2C1=O (stereo not shown) [Example 33, 5,5′-sulphonylbis(1,3-dioxo-indan-2-carboxylic acid (2-phenylethyl)-amide)] | inhibition | efficacy | inhibitory |  |  |  |

The next lines start with the compound.

| Structure (SMILES) | inhibition at 5 µM (human PF4; [7]) [%] | inhibition at 10 µM (human PF4; [7]) [%] | IC50 (human PF4) [nM] | half-life at 0.5 μM [2] [min] | half-life at 0.5 μM [3] [min] | inhibition at 100 µM (human PF4; 100 μM inhibitor, read-out: % inhibition of PF4 tetramer formation at single concentration of inhibitor) [%] | normalized P-selectin levels [1] | preventing P-selectin expression [1] | PF4-KKO induced platelet activation using P-selectin as a marker (human platelets) | EC50 [4] [µg/mL] | EC50 at 1 h [5] [µg/mL] | IC50 [6] [nM] |
| --- | --- | --- | --- | --- | --- | --- | --- | --- | --- | --- | --- | --- |
| CC(=O)C1C(=O)c2ccc(C(c3ccc4c(c3)C(=O)C(C(C)=O)C4=O)(C(F)(F)F)C(F)(F)F)cc2C1=O (stereo not shown) [Example 11, 2-acetyl-5-[(2-acetyl-2,3-dihydro-1,3dioxo-1h-inden-5-yl)-1,1,1,3,3,3-hexafluoropropan-2-yl]-2,3-dihydro-1,3-dioxo-1h-indene] |  |  | 1450 | 105 | > 180 |  |  |  | inhibitory |  |  |  |
| O=C(c1ccc2c(c1)C(=O)C(C(=O)NCCc1ccc(F)cc1)C2=O)c1ccc2c(c1)C(=O)C(C(=O)NCCc1ccc(F)cc1)C2=O (stereo not shown) [Example 22, 5,5′-carbonylbis(1,3-dioxo-indan-2-carboxylic acid (2-(4-fluorophenyl)ethyl)-amide)] | 66 | 76 | 1870 | 47.9 | 59.7 |  | modulate the activity of normalized P-selectin; also recorded: inhibition | efficacy | inhibitory |  |  |  |
| O=C(c1ccc2c(c1)C(=O)CC2=O)c1ccc2c(c1)C(=O)CC2=O [Example 4, 5,5′-carbonylbis(1h-indene-1,3(2h)-dione)] |  |  | 4000 | 1.7 | 4.7 | 96 |  |  |  | > 250 | > 250 | 3000 |
| CC(=O)C1(C(=O)OC(C)(C)C)C(=O)c2ccc(Oc3ccc4c(c3)C(=O)C(C(C)=O)(C(=O)OC(C)(C)C)C4=O)cc2C1=O (stereo not shown) [Example 5, 5-(2-acetyl-2-carbo-t-butoxy-2,3-dihydro-1,3dioxo-1h-inden-6-yloxy)-2-acetyl-2-carbo-t-butoxy-2,3-dihydro-1,3-dioxo-1h-indene] |  |  | 10400 |  |  |  |  |  |  | > 3350 | > 3350 | 10000 |
| COc1ccccc1NC(=O)C1C(=O)c2ccc(C(=O)c3ccc4c(c3)C(=O)C(C(=O)Nc3ccccc3OC)C4=O)cc2C1=O (stereo not shown) [Example 28, 5,5′-carbonylbis(1,3-dioxo-indan-2-carboxylic acid (2-methoxyphenyl)-amide)] | 82 | 65 | 640 | 52.2 | > 180 |  | modulate the activity of normalized P-selectin; also recorded: inhibition | efficacy | inhibitory |  |  |  |
| O=C(c1ccc2c(c1)C(=O)C(C(=O)NCCc1ccc3c(c1)OCO3)C2=O)c1ccc2c(c1)C(=O)C(C(=O)NCCc1ccc3c(c1)OCO3)C2=O (stereo not shown) [Example 18, 5,5′-carbonylbis(1,3-dioxo-indan-2-carboxylic acid (2-benzo[1,3]dioxol-5-yl-ethyl)-amide)] | 65 | 75 | 1810 |  |  |  |  |  | inhibitory |  |  |  |
